Experimental data from PMC12143348, “Rapid and reversible fluorescent probe enables repeated snapshot imaging of AMPA receptors during synaptic plasticity” (Science Advances, 2025).

Assays:
AMPARs = assay: Staining of AMPARs in acute cerebellar slices; type: binding, mouse; details: 30 nM probe; acute cerebellar slices; incubation at least 5 min
Procedure: following secondary antibodies were used: donkey anti-mouse CF568 conjugated (Sigma, […]
1:1,000) and anti-rabbit Alexa Fluor Plus 488 conjugated (Invitrogen, A32731, 1,000).
Imaging was performed with confocal microscopy.
With two-step labeling, the cells were labeled as described in “Two -step labeling and PFQX1(AF488)staining in cultured neurons,” followed by immunostaining.
In fig. S9A, the cells were incubated with 500 nM CellTracker Red CMPTX (Invitrogen) instead of Calcein Red AM for 30 min at 37 °C to visualize the intracellular region before the immunostaining.
Preparation and staining of cerebellar acute brain slices
C57BL/6J mice (3 weeks) were anesthetized with isoflurane, and their brains were isolated and immediately transferred to ice-cold cutting solution buffer (120 mM Choline Chloride, 3 mM KCl, 8 mM MgCl2, 1.25 mM NaH2PO4, 28 mM NaHCO3, 22 mM Glucose, and 0.5 mM Sodium ascorbate) gassed with 5% CO2 and 95% O2 and incubated for 5 min. Sagittal cerebellar slices were cut with a microslicer (Neo-linear slicer NLS-MT; DOSAKA EM) in cutting solution buffer and then incubated in ACSF […]
NaHCO3, 10 mM Glucose) gassed with 5% CO 2 and 95% O 2 at 37 °C.
Acute slices were transferred to glass bottom dishes and treated with 30 nM PFQX1(AF488) in HEPES-based ACSF for 5 min. […]
Scale bars, 500 µm. (F) Quantification of probe intensity in Ε. […]

GluA2flip(R) + TARP γ7 = molecular target: T1, GluA2flip(R) + TARP γ7 (Mus musculus, UniProt P23819, DEL765-802/Q607R); assay: Concentration-dependent binding of PFQX1(AF488) to GluA2flip(R) expressed with TARP γ7 in HEK293T cells; details: n = 3–4, read-out: Kd / Affinity of PFQX1(AF488) to GluA2flip(R) with TARP γ7
T1 construct: expressed in transfected cells; host or cells: HEK293T
Procedure: HEK293T cells (American Type Culture Collection) were cultured in Dulbecco’s modified Eagle’s medium (DMEM)–GlutaMAX (Invitrogen) supplemented with 10% fetal bovine serum (FBS) (Sigma-Aldrich), penicillin (100 U ml^−1), and streptomycin (100 μg ml^−1) and incubated in a 5% CO2 humidified chamber at 37°C. Cells were transfected with a plasmid using Lipofectamine 3000 (Invitrogen) according to the manufacturer’s instructions. Twenty-four hours after transfection, the cells were seeded on glass-bottom dishes coated with poly-L-lysine solution and incubated for 24 hours except for GluA4, TARP γ7, and GluK2. For GluA4, TARP γ7, and GluK2 expression, the cells were used 24 hours after transfection. […]
HEK293T cells were cotransfected with plasmids for AMPAR [5′UTR-GluA1^flip(R)-3′UTR, GluA2^flip(Q)-3′UTR, GluA3^flip(Q) (Y454A/R461G), and GluA4^flip(Q)], kainate receptor [GluK2(Q)], auxiliary subunits, or the control vector and transfection marker (EFGP-F or mCherry-F). […] Fluorescence images were acquired by excitation at 405, 488, 561, or 640 nm derived from diode lasers.
For evaluating the concentration dependency of fluorophore-ligand conjugates, 0.1 nM probe in HBS was added to the dish. […] Cell surface fluorescence intensity was quantified from the line scans of transfection marker positive cells and calculated with subtraction of background by ZEN blue software (Carl Zeiss). […]

T1 sequence (P23819 with tags, fused parts or gaps isoform P23819-4 Q607R/DEL765-802): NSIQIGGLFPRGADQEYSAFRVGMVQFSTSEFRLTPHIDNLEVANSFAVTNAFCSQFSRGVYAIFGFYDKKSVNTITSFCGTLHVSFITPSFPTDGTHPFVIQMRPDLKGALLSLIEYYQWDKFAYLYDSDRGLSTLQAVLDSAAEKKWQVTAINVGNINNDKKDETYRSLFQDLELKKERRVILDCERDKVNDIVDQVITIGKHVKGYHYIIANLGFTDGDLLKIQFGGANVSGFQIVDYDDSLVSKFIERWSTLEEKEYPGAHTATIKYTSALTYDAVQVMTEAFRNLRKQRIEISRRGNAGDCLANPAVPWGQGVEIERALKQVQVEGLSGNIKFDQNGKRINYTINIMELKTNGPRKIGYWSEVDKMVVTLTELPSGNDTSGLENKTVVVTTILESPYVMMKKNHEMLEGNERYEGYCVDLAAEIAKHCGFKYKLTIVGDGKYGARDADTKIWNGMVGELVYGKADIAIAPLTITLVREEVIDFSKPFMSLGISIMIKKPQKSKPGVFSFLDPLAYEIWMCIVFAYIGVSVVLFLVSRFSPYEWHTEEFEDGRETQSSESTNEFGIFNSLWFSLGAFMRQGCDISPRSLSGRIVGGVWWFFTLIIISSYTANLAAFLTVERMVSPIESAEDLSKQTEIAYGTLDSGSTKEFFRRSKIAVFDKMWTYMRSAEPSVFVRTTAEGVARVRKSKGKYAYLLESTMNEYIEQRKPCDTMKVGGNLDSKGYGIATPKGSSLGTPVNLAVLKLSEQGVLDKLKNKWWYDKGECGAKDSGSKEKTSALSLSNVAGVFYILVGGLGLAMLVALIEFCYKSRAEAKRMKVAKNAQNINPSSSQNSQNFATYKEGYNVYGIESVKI
T1 sequence (P62956 whole entry partner): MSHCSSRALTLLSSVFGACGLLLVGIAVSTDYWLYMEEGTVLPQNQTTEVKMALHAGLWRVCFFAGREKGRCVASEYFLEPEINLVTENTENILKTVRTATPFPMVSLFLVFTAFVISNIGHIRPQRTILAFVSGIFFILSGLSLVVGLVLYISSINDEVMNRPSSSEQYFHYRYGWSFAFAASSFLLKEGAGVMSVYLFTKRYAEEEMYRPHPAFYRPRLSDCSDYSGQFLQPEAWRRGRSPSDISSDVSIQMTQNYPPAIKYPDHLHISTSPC

reversibility of binding (medium exchange) in slices (AMPARs): can be washed out by the medium exchange
Kd (GluA2flip(R) + TARP γ7): 0.118 ± 0.0447 µM
SMILES: N=c1ccc2c(-c3ccc(C(=O)NCc4ccn(-c5cc6c(cc5C(F)(F)F)[nH]c(=O)c(=O)n6CC(=O)O)c4)cc3C(=O)O)c3ccc(N)c(S(=O)(=O)O)c3oc-2c1S(=O)(=O)O [PFQX1(AF488)]
